{
  "source": "patent US9492789B2",
  "about": "“Draw solute for forward osmosis, forward osmosis water treatment device, and forward osmosis method for water treatment” (Samsung Electronics Co., Ltd., priority 2012, dated 2016)",
  "key": {"[1]": {"experiment": "Osmotic pressure analysis of osmosis draw solution by freezing point depression", "assay_type": "physicochemical", "settings": "draw solution concentration 10 wt %", "procedure": "Osmosis draw solutions having the various concentrations shown in the following Table 1 are prepared, and the osmotic pressure of the osmosis draw solution including the NIPAam oligomer prepared from Examples 1 to 4 is analyzed using the osmotic pressure measurer according to a freezing point depression."}, "[2]": {"experiment": "Solubility change of 10 wt % osmosis draw solution on slow heating (LCST, separation temperature, reversibility)", "assay_type": "physicochemical", "from_the_text": "Each osmosis draw solution including the compounds of Examples 1 to 5 and Comparative Examples 1 and 2 at a concentration of 10 wt % is slowly heated from room temperature, and the solubility change of the solution is observed according to the temperature. The term “lower critical solution temperature (LCST)” indicates the temperature at which the solution begins to suddenly turn opaque, and the term “separation temperature” indicates the temperature in which the solution begins to be precipitated."}},
  "data": [
    {"smiles": "C=CC(=O)NC(C)C", "note": "[Comparative Example 1, N-isopropylacrylamide]", "values": [
      {"measurement": "Osmotic pressure, Osmol concentration", "setting": "[1]", "result": 738, "unit": "mOsmol/kg"},
      {"measurement": "Osmotic pressure, atm (equivalents)", "setting": "[1]", "result": 18, "unit": "atm"},
      {"measurement": "LCST", "setting": "[2]; 10 wt % solution heated from room temperature, temperature at which solution begins to suddenly turn opaque", "result": "36-37 °C"},
      {"measurement": "Reversibility", "setting": "[2]; @ 25° C.", "result": "◯"}
    ]}
  ]
}
